# “Also recorded” adds a separate entry of the source.
# Assays:
# [1] = test system: LC3B; assay: Western blot of LC3B in exosomes extracted from MiaPaCa2 cells; type: cell-based, human
# Experimental: U251, a human glioblastoma cell line, MiaPaCa2, a human pancreatic carcinoma cell line, and HEK293, a human embryonic kidney cell line. […] Cells were maintained in DMEM culture media supplemented with 10% fetal bovine serum (FBS), antimycotic, and L-glutamine. At 40% confluence, culture dishes were washed twice with PBS and media was replaced with 10% exosome depleted FBS (dFBS). DMEM media (50 ml EXO-FBS™ Exosome Depleted FBS media, System Biosciences) and incubated to settle for 24 h. After 24 h, culture dishes were washed with PBS and new dFBS DMEM media was added and treated with chloroquine diphosphate salt (Sigma Aldrich, UK) and incubated. […] Incubation varied according to plate confluency, CQ concentration, and expected number of exosomes secreted by the cell line. Media was collected and used for exosome extraction directly after incubation period concluded.
# Detection of LC3B expression in isolated exosomes was completed using western blotting standard protocols. Briefly, gel electrophoresis was used to separate proteins by size and/or structure. Proteins were then transferred to a membrane (polyvinylidene fluoride or nitrocellulose are suitable for use) and blocked with blocking buffer to prevent non-specific antibody binding. Membranes were incubated with anti-LC3B antibody to target LC3B-I and LC3B-II. LI-COR detection (LI-COR Biotechnology, USA) was employed to visualize target proteins. […] CD9 was used as a loading control and was detected using rabbit monoclonal antibody (Cell Signaling Inc., USA). […]
# [2] = test system: HEK293 cells; assay: Annexin V cell survival assay by flow cytometry; type: cell-based, human
# Experimental: HEK293 cells were plated in 10 cm culture dishes in 10% FBS DMEM media. Media was replaced with dFBS DMEM once 40% confluence was reached and cells were incubated for 24 h. Cells were treated with the following concentrations of agents: Gem 20 μM concentration (Gem^20), CQ 10 μM (CQ^10) and 20 μM (CQ^20) concentrations, and in combinations (wherein Gem was administered at 20 μM but CQ concentration varied) as follows: Gem+CQ^10 and Gem+CQ^20. Cells were treated in fresh dFBS DMEM media for 16 h. Cells and media were collected, centrifuged, and washed and stained with propedium iodide (PI) and annexin V prior to running samples. Cell cycle analysis was performed using fresh cells on a FACS Calibur (Becton Dickinson) after incubation with 25 μg/ml PI. Cell cycle phases were analyzed with the CellQuest-Pro software program (Becton Dickinson).
# The effect of autophagy inhibitor CQ was examined via a cell survival assay by flow cytometry using annexin V (FIG. 8).
# HEK293 cells were plated in 6 well cell culture plates and treated with control (A), Gem 20 μM (B), CQ 10 μM (C), CQ 20 μM (D), Gem 20 μM+CQ 10 μM (E), and Gem 20 μM+CQ 20 μM (F). Cells treated with CQ at both concentrations had increased expression of phosphatidyl serine compared to control from 10% up to almost 17% (C,E). Cells treated with Gem 20 μM alone had only 8.2% apoptotic cells (B).
# [3] = test system: LC3B; assay: Western blot of LC3B in exosomes extracted from patient plasma; type: in vivo, human; conditions: patients, Gem/Carb regimen + CQ 100 mg/day
# From the text: The study included 12 patients who were included within cohorts 1-3 of the approved phase I clinical trial (ClinicalTrials.gov Identifier NCT02071537). […] All subjects were consented before treatment and sample collection. All patients were heavily pretreated with anti-cancer therapeutics, with the exception of one patient who was enrolled to receive therapy with carboplatin/gemcitabine as part of the standard-of-care, in addition to the study CQ.
# All 12 patients received Gem/Carb for from one to four cycles at standard doses, wherein the first three patients of cohort one received Gem 1200 mg/m2 and the remaining three patients of cohort one received 1200 mg/m^2 (Gem dose decreased in some patients due to heavy pretreatment, in order to avoid high toxicity profile). Carboplatin was received as area under the curve (AUC) 5 and dose modifications were permitted. […] The first 6 patients received 50 mg CQ daily. When well tolerated, the dose was increased by 50 mg increments to 100 mg/day (3 patients) and 150 mg/day (3 patients). All candidates began taking CQ orally 7 days prior to chemotherapy (day −7) and continued taking CQ daily throughout four cycles of Gem/Carb. […]
# Detection of LC3B expression in isolated exosomes was completed using western blotting standard protocols. […] CD9 was used as a loading control and was detected using rabbit monoclonal antibody (Cell Signaling Inc., USA). […]
# [4] = test system: LC3B; assay: Western blot of LC3B in U251 cells and in exosomes extracted from cell media; type: cell-based, human; conditions: for LC3B-II band in cells: cells treated with chloroquine, whole cell / total cell extracts (U251); for LC3B-II band in exosomes: exosomes isolated from U251 cells treated with CQ
# From the text: Three cell lines were used in the studies disclosed herein. U251, a human glioblastoma cell line, MiaPaCa2, a human pancreatic carcinoma cell line, and HEK293, a human embryonic kidney cell line. A variety of cell lines were selected in order to compare results for cells having different baseline autophagic activities. Cells were maintained in DMEM culture media supplemented with 10% fetal bovine serum (FBS), antimycotic, and L-glutamine. At 40% confluence, culture dishes were washed twice with PBS and media was replaced with 10% exosome depleted FBS (dFBS). DMEM media (50 ml EXO-FBS™ Exosome Depleted FBS media, System Biosciences) and incubated to settle for 24 h. After 24 h, culture dishes were washed with PBS and new dFBS DMEM media was added and treated with chloroquine diphosphate salt (Sigma Aldrich, UK) and incubated. Incubation period was 48 h for western blot on HEK293 plates and 72 h for western blot of U251 cells. Incubation varied according to plate confluency, CQ concentration, and expected number of exosomes secreted by the cell line. Media was collected and used for exosome extraction directly after incubation period concluded. Exosome Extraction from Patient Plasma
# Exosomes were extracted from freshly collected cell culture media using exosome precipitation reagent (Total Exosome Isolation from cell culture media, Invitrogen by Life Technologies) following manufacturer instructions. Briefly, exosome extraction reagent is added to cell culture media and the solution is incubated overnight at 2-8° C. Precipitated exosomes are recovered by standard centrifugation at 10,000×g for 60 min. Extracted exosomes were suspended in phosphate buffered saline (PBS) and stored at −80° C.
# Detection of LC3B expression in isolated exosomes was completed using western blotting standard protocols. Briefly, gel electrophoresis was used to separate proteins by size and/or structure. Proteins were then transferred to a membrane (polyvinylidene fluoride or nitrocellulose are suitable for use) and blocked with blocking buffer to prevent non-specific antibody binding. Membranes were incubated with anti-LC3B antibody to target LC3B-I and LC3B-II. LI-COR detection (LI-COR Biotechnology, USA) was employed to visualize target proteins. LC3B protein detection was achieved by anti-LC3B rabbit monoclonal antibody (Cell Signaling Inc., USA). CD9 was used as a loading control and was detected using rabbit monoclonal antibody (Cell Signaling Inc., USA). All western blots were run on 5-15% gradient gels after estimating and unifying sample protein content by bicinchoninic acid assay (BCA).
# Quantification of LC3B-I and LC3B-II by western blot was compared in U251 cells, exosomes extracted from cell media, patient peripheral blood, and HEK293 cells (FIG. 1). U251 and HEK293 cells were treated with CQ to induce exosome secretion. Both cells and exosomes extracted from cellular media were analyzed. A peripheral blood sample was obtained from a patient undergoing Gem/Carb treatment, with a −7 daily pretreatment with CQ. Exosomes were isolated from the patient's plasma sample.
smiles,measurement,setting,value
"Nc1ccn([C@@H]2O[C@H](CO)[C@@H](O)C2(F)F)c(=O)n1 [Gem, gemcitabine]",LC3B band intensity in exosomes,[1]; Gemcitabine 20 μM alone,significantly less intense bands for both forms of LC3B; also recorded: comparatively less intense band
same,early apoptotic cells,"[2]; 20 μM Gem, 16 h",56.3%
same,live cells,"[2]; 20 μM Gem, 16 h",29.3%
same,main cell population,[2]; Gem 20 μM,early apoptotic phase
same,apoptotic cells,"[2]; Gem 20 μM alone, 16 h",8.2%
"CCN(CC)CCCC(C)Nc1ccnc2cc(Cl)ccc12 (stereo not drawn) [CQ, chloroquine]",LC3B-II expression in exosomes,[1]; CQ 50 μM,clear expression of LC3B-II
same,apoptotic cells,"[2]; 10 μM CQ, 16 h",17%
same,distribution of cell population,[2]; 20 μM CQ compared with 10 μM CQ,decreased both live and necrotic cells in favor of early apoptotic and apoptotic cells
same,expression of phosphatidyl serine (apoptotic cells),"[2]; CQ at both concentrations (10 μM, 20 μM), control 10%",~17%
same,LC3B expression in plasma extracted exosomes,[3],"first detected at 6h, with peak detection on day 15"
same,LC3B-II band in cells,[4],prominent in both CQ-treated and CQ-untreated samples
same,LC3B-II band in cells,[4]; listed as chloroquine,increase in LC3B-II band thickness
same,LC3B-I bands in exosomes,[4]; exosomes from cells treated with chloroquine,lacks LC3B-I bands
same,LC3B-II band in exosomes,[4],detected
same,LC3B-II band in exosomes,[4]; listed as chloroquine,clear LC3B-II band
